Among the test systems are MDA-MB-435; UACC-257; HOP-92; NCI-H460; SW-620; NCI-H522; CAKI-1; SF-268; HCC 2998; LOX IMVI; MCF7; OVCAR-4; OVCAR-3; SK-OV-3; 786-0; SNB-19; HL-60; SK-MEL-5; RPMI-8226; T47D.
What all share (test): NCI anticancer screen, dose series, 48 h

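Growth conditions: 96-well plates. Treatment: test compound, 48 hours, 5 concentrations. Analysis: linear interpolation between bracketing concentrations; unreached endpoints set to highest concentration. GI50 is the concentration that inhibits growth by half.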 Activity calls are given as the source filed them. Rule as the data show it: active = GI50 up to about 1.1 µM and inactive = higher.

`NC(=S)C1=C(N)Oc2c(c(=O)oc3ccccc23)C1c1ccc(Br)cc1` (stereo not given): the GI50 in the test on MDA-MB-435 was > 100 µM (inactive); with UACC-257 it was > 100 µM (inactive); in the test with HOP-92 it was 40 µM (inactive); in the test on NCI-H460, > 100 µM (inactive); in the test on SW-620, > 100 µM (inactive); in the test on NCI-H522, 74.8 µM (inactive). Also, the GI50 with CAKI-1, in the test on SF-268, in the test on HCC 2998, in the test on LOX IMVI, with MCF7 and in the test on OVCAR-4 was > 100 µM (inactive) each time. Moreover, the GI50 with OVCAR-3 is > 100 µM (inactive); in the test with SK-OV-3 it was > 100 µM (inactive); in the test on 786-0 it was > 100 µM (inactive); with SNB-19, > 100 µM (inactive); in the test with HL-60 it was 50.8 µM (inactive); in the test on SK-MEL-5 it was > 100 µM (inactive).

For `S=C(/N=c1/sc(Nc2ccccc2)nc2sc3c(c12)CCCC3)Nc1ccccc1`, the GI50 in the test on MDA-MB-435, in the test on UACC-257, in the test with HOP-92, with NCI-H460, in the test on SW-620 and in the test with NCI-H522 was > 62.5 µM (inactive) throughout. For the same molecule, the GI50 in the test with CAKI-1, in the test with SF-268, with HCC 2998, with LOX IMVI, in the test on MCF7 and in the test on OVCAR-4 was > 62.5 µM (inactive) throughout. Moreover, the GI50 is > 62.5 µM (inactive) with OVCAR-3; > 62.5 µM (inactive) in the test with SK-OV-3; > 62.5 µM (inactive) in the test on 786-0; 62.2 µM (inactive) with RPMI-8226; > 62.5 µM (inactive) in the test with SNB-19; > 62.5 µM (inactive) with HL-60. For the same molecule, the GI50 with SK-MEL-5 was > 62.5 µM (inactive).

Consider `O=C1/C(=C/c2ccc(Cl)cc2)CSC/C1=C\c1ccc(Cl)cc1`, for which the GI50 in the test on UACC-257 is 1.99 µM (inactive); in the test on HOP-92 it was 21.2 µM (inactive); in the test on NCI-H460 it was 3.32 µM (inactive); with T47D, 6.89 µM (inactive); with SW-620 it was 3.15 µM (inactive); in the test with NCI-H522 it was 4.99 µM (inactive). The GI50 in the test on CAKI-1 is 4.06 µM (inactive); in the test on SF-268, 5.96 µM (inactive); with HCC 2998, 2.07 µM (inactive); in the test on LOX IMVI it was 1.91 µM (inactive); in the test on MCF7, 2.72 µM (inactive); in the test with OVCAR-4 it was 3.71 µM (inactive). Moreover, the GI50 was 2.93 µM (inactive) with OVCAR-3; 5.32 µM (inactive) in the test on SK-OV-3; 3.08 µM (inactive) with 786-0; 0.798 µM (active) in the test on RPMI-8226; 4.84 µM (inactive) in the test with SNB-19; 1.34 µM (inactive) in the test on HL-60. Besides, the GI50 with SK-MEL-5 was 3.45 µM (inactive).

For `COc1cc2cccc(/N=C\c3ccccc3Cl)c2cc1OC`, the GI50 in the test with UACC-257 is > 100 µM (inactive); in the test with HOP-92, > 100 µM (inactive); in the test on NCI-H460, > 100 µM (inactive); in the test on SW-620, 26.5 µM (inactive); in the test with NCI-H522 it was > 100 µM (inactive); with CAKI-1, > 100 µM (inactive). Moreover, the GI50 in the test on SF-268 is > 100 µM (inactive); in the test with HCC 2998, > 100 µM (inactive); in the test with LOX IMVI, 70.3 µM (inactive); in the test on OVCAR-4, > 100 µM (inactive); with OVCAR-3, > 100 µM (inactive); in the test with SK-OV-3, > 100 µM (inactive). Also, the GI50 is > 100 µM (inactive) with 786-0; 78.2 µM (inactive) in the test with RPMI-8226; > 100 µM (inactive) in the test with SNB-19; 4.48 µM (inactive) in the test with HL-60; > 100 µM (inactive) in the test with SK-MEL-5.

For the molecule `CC(C)(C)N/N=C(\C(=O)NC1=C(Cl)C(=O)c2ccccc2C1=O)C1C=CCS1(=O)=O` (stereo not given), the GI50 in the test on UACC-257 is 13.6 µM (inactive); in the test on HOP-92 it was 14.1 µM (inactive); in the test with NCI-H460, 6.84 µM (inactive); with T47D, 19.5 µM (inactive); with SW-620, > 100 µM (inactive); in the test on NCI-H522, 12.5 µM (inactive). The GI50 in the test on CAKI-1 is 18.4 µM (inactive); with SF-268 it was 21.9 µM (inactive); with HCC 2998, 36.1 µM (inactive); with LOX IMVI, 7.98 µM (inactive); in the test with MCF7 it was 13.1 µM (inactive); with OVCAR-4, 16.4 µM (inactive). The GI50 in the test on OVCAR-3 was 2.65 µM (inactive); in the test with SK-OV-3 it was > 100 µM (inactive); in the test with 786-0 it was 22.4 µM (inactive); in the test with RPMI-8226, > 100 µM (inactive); in the test with SNB-19 it was > 100 µM (inactive); in the test on HL-60, > 100 µM (inactive).

Regarding `CN1N(c2ccccc2)C(=O)C2=NC=C(C#N)C(=N)C21C` (stereo not given), the GI50 in the test with MDA-MB-435, in the test with UACC-257, in the test on HOP-92, in the test on NCI-H460, in the test with SW-620 and with NCI-H522 was > 100 µM (inactive) in each case. The GI50 with CAKI-1, with HCC 2998, in the test on LOX IMVI, with MCF7, with OVCAR-4 and in the test with OVCAR-3 was > 100 µM (inactive) throughout. Also, the GI50 in the test on SK-OV-3, in the test on 786-0, in the test on RPMI-8226, in the test on SNB-19 and in the test with SK-MEL-5 was > 100 µM (inactive) in each case.

Turning to `FC(F)(F)c1ccc(C2=N/S(c3ccccc3)=N\C(c3ccc(C(F)(F)F)cc3)=N/S(c3ccccc3)=N\2)cc1` (stereo not given), the GI50 in the test on MDA-MB-435, in the test with UACC-257, in the test on HOP-92, in the test on NCI-H460, in the test with SW-620 and in the test with NCI-H522 was > 100 µM (inactive) in each case. For the same molecule, the GI50 in the test with CAKI-1, with SF-268, in the test with HCC 2998, in the test on LOX IMVI, in the test with MCF7 and in the test on OVCAR-4 was > 100 µM (inactive) throughout. The GI50 is > 100 µM (inactive) in the test with OVCAR-3; > 100 µM (inactive) with SK-OV-3; 80 µM (inactive) in the test on 786-0; > 100 µM (inactive) in the test with RPMI-8226; > 100 µM (inactive) with SNB-19; > 100 µM (inactive) in the test on SK-MEL-5.

For the molecule `CC(=O)c1ccc(NC(=O)C(=O)Nn2c(S)nc3ccccc3c2=O)cc1`, the GI50 in the test on UACC-257, in the test with HOP-92, in the test on NCI-H460, with SW-620, in the test with NCI-H522 and in the test on CAKI-1 was > 100 µM (inactive) each time. In addition, the GI50 with SF-268, with HCC 2998, with LOX IMVI, in the test on OVCAR-4, in the test with OVCAR-3 and with SK-OV-3 was > 100 µM (inactive) throughout. For the same molecule, the GI50 in the test with 786-0, in the test on RPMI-8226, in the test on SNB-19, in the test on HL-60 and with SK-MEL-5 was > 100 µM (inactive) each time.

As for `CCOC(=O)N1N=NC2C3OC(C[C@@]3(C#N)OC(C)=O)[C@H]21` (stereo not given in full), the GI50 in the test on UACC-257, with HOP-92, in the test on NCI-H460, in the test with SW-620, in the test on NCI-H522 and with CAKI-1 was > 100 µM (inactive) in each case. For the same molecule, the GI50 is 51.9 µM (inactive) in the test on SF-268; > 100 µM (inactive) in the test on HCC 2998; > 100 µM (inactive) in the test with LOX IMVI; > 100 µM (inactive) in the test on OVCAR-4; > 100 µM (inactive) with OVCAR-3; > 100 µM (inactive) with SK-OV-3. Moreover, the GI50 with 786-0, with RPMI-8226, in the test on SNB-19, with HL-60 and with SK-MEL-5 was > 100 µM (inactive) each time.

Regarding `CCO/C=N\c1c(C#N)c(-c2ccc(Cl)cc2)cn1-c1ccc(C)cc1`, the GI50 in the test with MDA-MB-435, with UACC-257, with HOP-92, in the test with NCI-H460, with SW-620 and with NCI-H522 was > 100 µM (inactive) each time. For the same molecule, the GI50 in the test on CAKI-1, in the test with SF-268, in the test with HCC 2998, in the test with LOX IMVI, in the test on MCF7 and in the test with OVCAR-4 was > 100 µM (inactive) in each case. Besides, the GI50 in the test on OVCAR-3, with SK-OV-3, in the test with 786-0, in the test with SNB-19, in the test on HL-60 and in the test on SK-MEL-5 was > 100 µM (inactive) in each case.

Take `O=C(/C=C\c1ccccc1O)c1ccc(O)cc1O`: the GI50 was > 100 µM (inactive) in the test with UACC-257; > 100 µM (inactive) with HOP-92; > 100 µM (inactive) in the test on NCI-H460; 10.8 µM (inactive) with SW-620; > 100 µM (inactive) with NCI-H522; > 100 µM (inactive) in the test with CAKI-1. Also, the GI50 in the test with SF-268 is > 100 µM (inactive); in the test with HCC 2998, > 100 µM (inactive); with LOX IMVI, > 100 µM (inactive); with OVCAR-4, 54.6 µM (inactive); in the test with OVCAR-3 it was > 100 µM (inactive); in the test on SK-OV-3 it was > 100 µM (inactive). The GI50 in the test on 786-0 is > 100 µM (inactive); in the test on RPMI-8226 it was 62.8 µM (inactive); in the test with SNB-19, > 100 µM (inactive); in the test with HL-60, 81.8 µM (inactive); in the test with SK-MEL-5, > 100 µM (inactive).

Source of the values: ChEMBL document CHEMBL1201862, “PubChem BioAssay data set” (2004).
